Measured values taken from patent publication US11247994B2, “6-dithio-substituted-2′-deoxyguanosine compound, preparation method thereof and use thereof” (ZHEJIANG UNIVERSITY, priority 2018, dated 2022).

What was measured:
TrxR/Trx-1 = target: T1, TrxR/Trx-1 (Homo sapiens, UniProt P10599); assay: Ellman test, inhibition of TrxR/Trx-1 activity; format: biochemical; conditions: Ellman reaction, 37° C. 30 min, absorbance 412 nm; read-out: IC50, inhibition of TrxR/Trx-1 activity
T1 sequence (P10599 2-105 limits assumed): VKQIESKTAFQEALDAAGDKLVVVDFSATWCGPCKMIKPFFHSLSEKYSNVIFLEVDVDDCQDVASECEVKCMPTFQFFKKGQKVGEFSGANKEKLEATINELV
Excerpt: Ellman Test—Inhibitory Effect of 6-dithio-substituted-2′-deoxyguanosine Derivative Analogues on TrxR/Trx-1 Activity
A TrxR/TR experiment based on the Ellman reaction was used to determine the inhibitory activity of candidate compounds. Ellman reaction is that 5,5′-dithiobis (2-nitrobenzoic acid) (DTNB) reacts with sulfhydryl (—SH) to form a yellow substance with absorption at 412 nm. The increase of absorption can be equivalent to the decrease of NADPH mediated by TrxR, thus further judging the activity of TrxR/Trx-1. All experiments were carried out on 96-well plates. Before the start of the enzyme reaction, five groups of corresponding test compound stock solutions with different concentrations were prepared. In the TrxR/Trx-1 reaction, a total volume per well was 60 μL, including 100 mM HEPES, 5 mM EDTA (HE buffer, pH 7.5), 1 mM NADPH, 1.0 μM TrxR, 0.8 μM Trx-1, 2.5 mg/mL bovine insulin and the required concentration of compounds to be tested. No compound to be tested was added to the control group. No compound to be tested, TrxR and Trx-1 were added in the blank group. The plate was shaken on an oscillator for 30 seconds to fully mix the reactants. After incubation at 37° C. for 30 min, 100 μL of the prepared mixture containing 6 M guanidine hydrochloride, 50 mm Tris and 10 mm DTNB was added to terminate the reaction. After 15 minutes of incubation, the absorbance was measured at 412 nm. Finally, TrxR/Trx-1 activity %=(Atest−Akb)/(Acontrol−Akb), that is, the relative percentage of TrxR/Trx-1 activity was the activity inhibited by adding 2′-deoxyguanosine derivatives relative to the activity without 2′-deoxyguanosine derivatives. The data were fitted into a concentration response curve with a variable slope, and the IC50 value was calculated from the curve.

NCM460 = assay: MTT assay, cell growth inhibition, NCM460; format: cell-based; conditions: Homo sapiens, 48 hours, read-out: Tumor cell growth inhibition IC50, NCM460
Excerpt: (§1) MTT Assay—Inhibitory Effect of 6-dithio-substituted-2′-deoxyguanosine Derivatives on Tumor Cell Growth
(§2) We measured the tumor cell growth inhibitory activity of candidate compounds by MTT assay. Human tumor cells in logarithmic growth phase were digested with 0.25% pancreatin for a certain time, centrifuged, re-suspended and counted with a blood cell counting plate to prepare a cell suspension, and the cell suspension was adjusted to 1.0×10^4-1×10^5 cells/mL. The cell suspension was inoculated into a 96-well culture plate, 100 μL per well, and cultured in an incubator with saturated humidity, 37° C. and 5% CO2 for 24 hours until the cells completely adhered to the wall. The test compound was diluted to the required concentration with a complete medium, the complete medium of the 96-well culture plate inoculated with human tumor cells was sucked out, a medicament-containing medium was added, 100 μL per well, the final concentration of DMSO was less than 0.1%, and the culture plate was put in an incubator for 48 hours. 10 μl of MTT was added to each well of the 96-well plate, and the culture was continued for 4 h. The culture was stopped and the culture solution in the well was carefully sucked off. 150 μL DMSO was added to each well, and shaken at a low speed for 10 min on a shaking table, so that the crystal was fully dissolved. The absorbance of each well was measured at OD 570 nm of an enzyme-linked immunosorbent assay instrument. At the same time, zeroing wells (the culture medium, MTT, dimethyl sulfoxide) and control wells (cells, a drug dissolution medium with the same concentration, a culture solution, MTT, dimethyl sulfoxide) were set up, and the cell growth inhibitory activity was calculated with the corresponding solvents as the control. 3-6 multiple wells in each group were set up with repetition of several times. Cell viability of control=(Adrug group−Azeroing well)/(Acontrol well−Azeroing well)*100%. Drawing was drawn, the data were fitted into a concentration response curve with a variable slope, and IC50 value was calculated from the curve.

[1] = test system: human colon cancer cells HCT116; assay: MTT assay, tumor cell growth inhibition, HCT116; format: cell-based; conditions: HCT-116, 48 hours
Excerpt: as §1, §2

[2] = test system: human colon cancer cells SW620; assay: MTT assay, tumor cell growth inhibition, SW620; format: cell-based; conditions: SW-620, 48 hours
Excerpt: as §1, §2

[3] = test system: human colon cancer cells HT29; assay: MTT assay, tumor cell growth inhibition, HT29; format: cell-based; conditions: HT-29, 48 hours
Excerpt: as §1, §2

[4] = test system: human melanoma cells A375; assay: MTT assay, tumor cell growth inhibition, A375; format: cell-based; conditions: A-375, 48 hours
Excerpt: as §1, §2

[5] = test system: human gastric cancer cells BGC; assay: MTT assay, tumor cell growth inhibition, BGC; format: cell-based; conditions: 48 hours
Excerpt: as §1, §2

[6] = test system: human leukemia cells K562; assay: MTT assay, tumor cell growth inhibition, K562; format: cell-based; conditions: 48 hours
Excerpt: as §1, §2

[7] = test system: human liver cancer cells HepG2; assay: MTT assay, tumor cell growth inhibition, HepG2; format: cell-based; conditions: 48 hours
Excerpt: as §1, §2

[8] = test system: human non-small cell lung cancer A549; assay: MTT assay, tumor cell growth inhibition, A549; format: cell-based; conditions: 48 hours
Excerpt: as §1, §2

[9] = test system: human breast cancer cells Bcap37; assay: MTT assay, tumor cell growth inhibition, Bcap37; format: cell-based; conditions: 48 hours
Excerpt: as §1, §2

[10] = test system: human colon cancer cell line HCT116 subcutaneous transplanted tumor; assay: Tumor-bearing test in nude mice, HCT116 subcutaneous transplanted tumor (tumor volume, TUNEL); format: in vivo; conditions: HCT116 model; for Extent of apoptosis in tumor tissue (TUNEL staining, rank order): frozen tumor sections, DAPI and TUNEL, G group = blank; for Inhibitory effect on the growth of subcutaneous transplanted tumor tissue in nude mice (rank order, from slope of tumor volume): compound A 2 mg/kg first 8 times, 10 mg/kg last 4 times, others equimolar, KB = blank
Excerpt: Tumor-Bearing Test in Nude Mice—Inhibitory Effect of 6-Dithio-Substituted-2′-Deoxyguanosine Derivatives on the Growth of Subcutaneous Transplanted Tumor Tissue in Nude Mice
1) Tumor-Bearing Mouse Model of Human Colon Cancer Cell Line HCT116
(§3) We took human colon cancer cell line HCT116 as the research object, and established a subcutaneous transplanted tumor model of human colon cancer in 32 immunodeficient nude mice. The 24th generation HCT116 cells in logarithmic growth phase were digested with pancreatin to prepare a single-cell suspension, and 1×10^7 cells were inoculated subcutaneously in the right armpit of male nude mice about 5 weeks old. After inoculation, cyclophosphamide (100 mg/kg) was injected intraperitoneally for two consecutive days. […] On the 20th day after colon cancer cell HCT116 was implanted subcutaneously, nude mice were divided into 7 groups by a random number table method, including a test drug group, a positive control group and a blank control group. Specifically, group A: the compound A was administrated; Group B: the compound B was administrated; Group C: the compound C was administrated; Group D: the compound D was administrated; Group E: the compound 6-thio-DG was administrated; Group F: the compound PX-12 was administrated; Group G: blank group, without administration of any compound. Except group C with 3 rats and group G with 4 rats, all other 5 groups had 5 rats, they mice were labeled and injected by tail vein once every two days for 24 days, 12 times, with the dose of compound A being 2 mg/kg for the first 8 times and 10 mg/kg for the last 4 times, and the dosages of other drugs being the same molar weights. The tumor volume was calculated by taking the length of the tumor as the longest diameter and the width as the corresponding vertical diameter, and the tumor volume V=(length×width^2) mm^3/2. 48 hours after the last treatment, blood was taken from the eyes, and then the animals were killed. Blood was centrifuged to get the supernatant, and then blood biochemical analysis was performed. Paraffin embedded sections of fixed tissues were stained with HE. The tumor mass in a frozen tissue was sectioned in a frozen state, and then stained by DAPI and TUNEL to judge the apoptosis of the tumor tissue in nude mice.

[11] = Blood biochemical analysis and HE staining of tissues in HCT116 tumor-bearing nude mice; format: in vivo; conditions: tail vein once every two days, 12 times, blood 48 hours after the last treatment
Protocol: as §3

[12] = test system: human breast cancer cells MCF7; assay: MTT assay, tumor cell growth inhibition, MCF7; format: cell-based; conditions: 48 hours
Excerpt: as §1, §2

[13] = tail vein once every two days for 24 days

SMILES | IC50 (TrxR/Trx-1) | IC50 (NCM460) | IC50 [1] | IC50 [2] | IC50 [3] | IC50 [4] | IC50 [5] | IC50 [6] | IC50 [7] | IC50 [8] | IC50 [9] | Extent of apoptosis in tumor tissue (TUNEL staining, rank order) [10] | Inhibitory effect on the growth of subcutaneous transplanted tumor tissue in nude mice (rank order, from slope of tumor volume) [10, 13] | Alanine aminotransferase [11] | Albumin [11] | Alkaline phosphatase [11] | Aspartate aminotransferase [11] | BUN [11] | Chloride ion [11] | Creatine kinase [11] | other results
CCC(C)SSc1nc(N)nc2c1ncn2C1C[C@H](O)[C@@H](CO)O1 (stereo partly shown) [Compound A, 6-(sec-butyldithio)-2′-deoxyguanosine] | 31.7 µM | > 1000 µM | 1.27 µM | 0.21 µM | 4.55 µM | 0.6 µM | 6.09 µM | 9.88 µM | 10 to 50 µM | 30.8 µM | 18.2 µM | D group>A group≈B group≈E group (6-thio-dG group)>C group>F group (PX-12 group)>G group (KB group) | D>B≈A≈6-thio-dG>PX-12>C>KB | 33.3 U/L | 24.8 g/L | 36.0 U/L | 153.4 U/L | 10.7 mmol/L | 113.8 mmol/L | 1896 U/L | Ability to inhibit the growth of transplanted tumor tissue compared with positive controls ([10]; tail vein once every two days for 24 days, equimolar doses): close to that of the positive control 6-thio-dG and stronger than that of the positive control PX-12; Creatinine [11]: -0.80 µmol/L; Glucose [11]: 2.21 mmol/L; Potassium ion [11]: 7.56 mmol/L; Sodium ion [11]: 155.6 mmol/L; Total bilirubin [11]: 0.40 µmol/L; Total cholesterol [11]: 2.99 mmol/L; Total protein [11]: 52.6 g/L; Triglyceride [11]: 0.84 mmol/L
Nc1nc2c(ncn2[C@H]2C[C@H](O)[C@@H](CO)O2)c(=S)[nH]1 [Compound 6-thio-dG, 6-thio-2′-deoxyguanosine, reference compound] | > 100 µM | > 1000 µM | 17.5 µM | > 100 µM | 3.04 µM | 0.4 µM | > 100 µM | 23.3 µM | < 10 µM | 33.6 µM | > 100 µM | D group>A group≈B group≈E group (6-thio-dG group)>C group>F group (PX-12 group)>G group (KB group) | D>B≈A≈6-thio-dG>PX-12>C>KB | 44.3 U/L | 29.8 g/L | 49.6 U/L | 172.4 U/L | 11.5 mmol/L | 120.8 mmol/L | 2125 U/L | IC50 [12]: > 100 µM; Creatinine [11]: 12.0 µmol/L; Glucose [11]: 3.12 mmol/L; Potassium ion [11]: 7.18 mmol/L; Sodium ion [11]: 158.8 mmol/L; Total bilirubin [11]: -0.10 µmol/L; Total cholesterol [11]: 2.62 mmol/L; Total protein [11]: 51.8 g/L; Triglyceride [11]: 1.10 mmol/L
